From PMC4754331, “Programming of metabolic effects in C57BL/6JxFVB mice by in utero and lactational exposure to perfluorooctanoic acid” (Archives of Toxicology, 2015)
Where “and” joins values, the source holds several entries; their conditions need not be identical. Identical values can stand only once. Like-named read-outs stand apart in the source and are kept apart here.

Assays:
C57BL/6JxFVB hybrid mice [1] = test: Body size, organ and fat pad weights at necropsy; conditions: for Emax: Mus musculus
[2] = cited from earlier work
C57BL/6JxFVB hybrid mice [3] = test: Histopathology of liver; format: in vivo; conditions: for Liver nuclear dysmorphology: count of individuals with Grade 0 / Liver nuclear dysmorphology: count of individuals with Grades 1, 2: p = 0.06 vs control
F0 C57BL/6J mice = test: Perinatal dietary exposure: general toxicity and reproduction parameters (litter size, sex ratio, survival); format: in vivo
Method: PFOA was obtained as sodium perfluoro-n-octanoate (PFOA-Na; CAS No. 335-95-5, purity >99 %) and kindly provided by Wellington Laboratories Inc., Ontario, Canada. PFOA-Na was dissolved in acetone and mixed with the diet (NIH-07, Research Diet Services, Wijk bij Duurstede, The Netherlands). Thereafter, acetone was allowed to evaporate, and this master mixture was serially diluted with a factor 3–3.3 by adding NIH-07, and afterward, the diet was pelleted. In this way, seven diet groups and a control NIH-07 (blank acetone was added) were obtained, aiming at concentrations of 0, 0.017, 0.056, 0.17, 0.56, 1.7, 5.6 and 17 mg/kg PFOA in feed, which corresponded to 0, 3, 10, 30, 100, 300, 1000 and 3000 µg/kg bw based on an average food consumption of 4.5 g per mouse (average body weight of 25 g) per day. PFOA concentrations in test diets were confirmed by isotope dilution liquid chromatography mass spectrometry after extraction with methanol (8402, JT Baker, Deventer the Netherlands) and a cleanup with carbon solid phase extraction (ENVI Carb, 57210-U, Supelco, Zwijndrecht, the Netherlands). Actual PFOA concentrations in the food were 15–30 % lower than the nominal values. The non-purified soy-based NIH-07 was chosen because it was originally designed to optimize gestation, lactation and growth of rodents, and avoiding natural phytoestrogens in the diet may have confounding effects (Ruhlen et al. [2008]). Estrogenic and anti-estrogenic activity for this diet was previously analyzed to be low and absent, respectively (van Esterik et al. [2014]).
Nulliparous female C57BL/6J mice (Charles River, Sulzfeld, Germany) were mated with male FVB mice (GPL, Bilthoven, The Netherlands) to produce hybrid offspring, for which comprehensive background information of phenotype and development is available (Dollé et al. [2011]). Mice were maintained under specific pathogen-free conditions with a target ambient temperature of 21 °C, humidity of 60 % and with a 12/12 h light/dark cycle. F0 males were single-housed in standard Macrolon type II cages and were fed standard laboratory chow (CRM, Tecnilab-BMI, Someren, The Netherlands). To avoid interference from environmental bisphenol A (van Esterik et al. [2014]), F0 females and their pups during lactation were housed in polysulfone cages (Tecnilab-BMI, Someren, The Netherlands), and drinking water was supplied in glass bottles with rubber stoppers. Cages had spruce/fir wood bedding (Lignocel S 8-15; Tecnilab-BMI, Someren, The Netherlands) and aspen wood shavings (Lignocel 9 S) for cage enrichment. Both feed and water were supplied ad libitum.
After an acclimatization period of 1 week, female F0 mice were fed experimental diets explained above starting 2 weeks before mating and continued during mating (1 week), gestation (3 weeks) and lactation (3 weeks). Each dose group had six F0 females, which were mated three by three with two F0 males for each dose group. […] For every dose group, on average 9 mice per sex (range 6–10) were included for follow-up through juvenile and adult stages, selecting pups proportionally from available litters. F1 males were single-housed, and F1 females were housed in pairs from the same litter in standard Macrolon type I cages. Body weight was measured at postnatal day (PND) 4, 7, 14 and 21 and weekly from 5 weeks of age continuing until the end of the study. Food consumption could not be recorded reliably due to high spillage.

C57BL/6JxFVB hybrid mice [4] = test: Insulin tolerance test; format: in vivo; conditions: males and females; 300 µg/kg vs control; 20 weeks; data not shown
Method: One week later, at 20 weeks of age, an insulin tolerance test (ITT) was performed in the same animals as used for the GTT. Mice were not fasted to avoid low glucose baseline levels which, after an insulin injection, could lead to hypoglycemia. At the start of the experiment, a baseline blood sample was taken (0 min). […] The experiment was performed over two morning sessions, with 1.75 h between the first and last tested animal in each session, and animals were treated in a random order. At the age of 22–25 weeks, control and 300 µg/kg bw/d animals were used for a spontaneous locomotor activity test. After an acclimatization period of minimal 6 h, activity of the mice was continuously registered on four parallel platforms for 36 h (males) or 60 h (females), starting at the beginning of the dark phase (6.30 PM) of the first day.

[5] = males, 300 and 3000 µg PFOA/kg body weight/day combined, p = 0.07 vs control

O=C(O)C(F)(F)C(F)(F)C(F)(F)C(F)(F)C(F)(F)C(F)(F)C(F)(F)F [PFOA, Perfluorooctanoic acid]
Other relevant effects of PFOA (C57BL/6JxFVB hybrid mice [1]; C57BL/6JxFVB, 3-10-30-100-300-1000-3000 µg/kg bw/d, diet, 2w pre-mating-PND21, this study): F: ↓ fat pad weights; ↓ serum cholesterol; ↓ serum triglycerides | Perirenal fat pad weight: BMDL corrected for measured levels of PFOA in the feed (15–30 % lower than nominal) (C57BL/6JxFVB hybrid mice [1]; F1 females): 46–55 µg/kg bw/d and 46 µg/kg bw/d | Femur length: BMDL (C57BL/6JxFVB hybrid mice [1]; F1 females, CES 5 %): 2423 µg/kg bw/d | Femur length: BMDU (C57BL/6JxFVB hybrid mice [1]; F1 females, CES 5 %): 6999 µg/kg bw/d | Femur weight: BMDL (C57BL/6JxFVB hybrid mice [1]; F1 females, CES 5 %): 989 µg/kg bw/d | Femur weight: BMDU (C57BL/6JxFVB hybrid mice [1]; F1 females, CES 5 %): 5060 µg/kg bw/d | Perirenal fat pad weight: BMDL (C57BL/6JxFVB hybrid mice [1]; F1 females, CES 5 %): 65 µg/kg bw/d | Perirenal fat pad weight: BMDU (C57BL/6JxFVB hybrid mice [1]; F1 females, CES 5 %): 362 µg/kg bw/d | Quadriceps femoris muscle weight: BMDL (C57BL/6JxFVB hybrid mice [1]; F1 females, CES 5 %): 432 µg/kg bw/d | Quadriceps femoris muscle weight: BMDU (C57BL/6JxFVB hybrid mice [1]; F1 females, CES 5 %): 1356 µg/kg bw/d | Emax (C57BL/6JxFVB hybrid mice [1]; read-out: Femur length: max effect size, F1 females): -4.2% | Emax (C57BL/6JxFVB hybrid mice [1]; read-out: Femur weight: max effect size, F1 females): -8.6% | Emax (C57BL/6JxFVB hybrid mice [1]; read-out: Liver weight: max effect size, F1 males): 16% | Emax (C57BL/6JxFVB hybrid mice [1]; read-out: Perigonadal fat pad weight: max effect size, F1 females): -56% | Emax (C57BL/6JxFVB hybrid mice [1]; read-out: Perirenal fat pad weight: max effect size, F1 females): -57% | Emax (C57BL/6JxFVB hybrid mice [1]; read-out: Quadriceps femoris muscle weight: max effect size, F1 females): -19% | Emax (C57BL/6JxFVB hybrid mice [1]; read-out: Tibia length: max effect size, F1 females, exponential modeling only): -5% | Emax (C57BL/6JxFVB hybrid mice [1]; read-out: Tibia length: max effect size, F1 males): -1.6% | Developmental BMDL of 46 µg/kg bw/d: times lower than the BMDL10 of 300 µg/kg bw/d used for the TDI (C57BL/6JxFVB hybrid mice [1]; mouse, in vivo): 6.5 times | Elimination half-life in adult mice ([2]; adult mice, ref Lau et al. [2006]): 17 days | Time to steady-state level in serum of mice ([2]; ref Lau et al. [2006]): ≤ 1 week | Lowering of levels in offspring after maternal exposure was stopped ([2]; within 6 weeks, ref Wolf et al. ([2007])): 40 times | Liver eosinophilic alteration: count of individuals with Grades 0, 1 (C57BL/6JxFVB hybrid mice [3]; females, 300 and 3000 combined): 11 | Liver eosinophilic alteration: count of individuals with Grades 2, 3 (C57BL/6JxFVB hybrid mice [3]; females, 300 and 3000 combined): 8 | Liver fatty change: count of individuals with Grade 0 (C57BL/6JxFVB hybrid mice [3]; females, 300 and 3000 combined): 17 | Liver fatty change: count of individuals with Grades 1, 2, 3 (C57BL/6JxFVB hybrid mice [3]; females, 300 and 3000 combined): 2 | Liver nuclear dysmorphology: count of individuals with Grade 0 (C57BL/6JxFVB hybrid mice [3]; females, 300 and 3000 combined): 12 | Liver nuclear dysmorphology: count of individuals with Grades 1, 2 (C57BL/6JxFVB hybrid mice [3]; females, 300 and 3000 combined): 7 | Liver eosinophilic alteration: count of individuals with Grade 0 (C57BL/6JxFVB hybrid mice [3]; [5]): 14 | Liver eosinophilic alteration: count of individuals with Grades 1, 2 (C57BL/6JxFVB hybrid mice [3]; [5]): 6 | Liver fatty change: count of individuals with Grade 0 (C57BL/6JxFVB hybrid mice [3]; males, 300 and 3000 combined): 16 | Liver fatty change: count of individuals with Grades 1, 2, 3, 4 (C57BL/6JxFVB hybrid mice [3]; males, 300 and 3000 combined): 4 | Liver nuclear dysmorphology: count of individuals with Grade 0 (C57BL/6JxFVB hybrid mice [3]; males, 300 and 3000 combined): 13 | Liver nuclear dysmorphology: count of individuals with Grades 1, 2 (C57BL/6JxFVB hybrid mice [3]; males, 300 and 3000 combined): 7 | Sex ratio or survival of the F1 generation (F0 C57BL/6J mice; 3–3000 µg/kg bw/day): No effects | Litter size: BMD (CED) (F0 C57BL/6J mice; F0 dams exposed via diet 2 weeks before mating until PND21): 445 µg/kg bw/d | Litter size: CEDL (F0 C57BL/6J mice; Fig. 1, unit from legend): 299.1 µg/kg body weight/day | Litter size: CEDU (F0 C57BL/6J mice; Fig. 1, unit from legend): 873 µg/kg body weight/day | General toxicity in dams (survival, body weight, weight gain during gestation) (F0 C57BL/6J mice; dietary exposure 3–3000 µg/kg bw/day): no effect | Glucose homeostasis: ITT (C57BL/6JxFVB hybrid mice [4]): did not show an effect
